Results taken from patent US20110117212A1, “THERAPEUTIC COMBINATION COMPRISING AN AURORA KINASE INHIBITOR AND AN ANTINEOPLASTIC AGENT” (priority 2008, published 2011).

Assays:
DU145 prostate carcinoma = settings: DU145 s.c. in athymic mice; delay to reach 1 g tumor; Compound 1 30 mg/kg ip BID days 10-18; docetaxel 7.5 mg/kg iv days 10, 14, 18; combination: docetaxel days 10, 14, 18, Compound 1 days 11, 12, 13, 15, 16, 17, 19, 20, 21
Method: Balb, Nu\Nu male mice, from Harlan (Italy), were maintained in cages with paper filter cover, food and bedding sterilized and water acidified. 2.5×10^6 DU145 prostate carcinoma cells (from the American Type Culture Collection) were injected subcutaneously in athymic mice.
The treatment started 10 days later tumor cells injection when tumors were palpable. Docetaxel was prepared immediately before treatment, compound 1 of formula (A) was prepared daily, on the basis of known stability of the compound.
Compound 1 was administered by intraperitoneal route in a volume of 10 ml/kg at the doses of 30 mg/kg twice a day (BID) for 9 days (days 10 to 18). Docetaxel was administered by intravenous route in a volume of 10 ml/kg at the dose of 7.5 mg/kg on days 10, 14, 18 from the days of cell injection. When combined, compound 1 was administered in the interval between the docetaxel treatments at days 11, 12, 13, 15, 16, 17, 19, 20 and 21. Tumor growth and body weight were measured every 3 days. Tumor growth was assessed by caliper. The two diameters were recorded and the tumor weight was calculated according the following formula:
length (mm)×width^2/2. The effect of the antitumor treatment was evaluated as the delay in the onset of an exponential growth of the tumor (see for references, Anticancer drugs 7:437-60, 1996). […] Toxicity was evaluated on the basis of body weigh reduction.

[1] = tested on: A2780 human ovarian carcinoma; assay: In vivo antitumor efficacy in combination with cisplatin; settings: A2780 s.c. in athymic mice; Compound 1 15 mg/kg ip BID days 13-17; cisplatin 8 mg/kg iv day 17; combination: same doses and days
Method: (§1) A2780 human ovarian carcinoma cells were obtained from American Type Culture Collection (Rockville, Md.) and were maintained in vitro as continuous cultures in RPMI medium supplemented with 10% FBS, at 37° C., 5% CO2. For in vivo experiments 8×10^6 A2780 cells were implanted subcutaneously in athymic mice.
(§2) The treatment started when tumors were palpable (day 13). Both compounds were prepared immediately before treatment.
(§3) Tumor growth was assessed by caliper. […] Animals were sacrificed on day 37 after tumor implant, day 24 from the start of treatments and tumors were weighted. The effect of the antitumor treatment was evaluated as percentage of tumor growth inhibition of the treated group respect to control.

[2] = tested on: BX-PC3 human pancreatic carcinoma; assay: In vivo antitumor efficacy in combination with gemcitabine; settings: BX-PC3 s.c. in athymic mice; compound 1 15 mg/kg ip BID days 9-17; gemcitabine 80 mg/kg iv days 9, 13, 17; combination: gemcitabine days 9, 13, 17, compound 1 days 10, 11, 12, 14, 15, 16, 18, 19, 20
Method: Fragments of BX-PC3 human pancreatic carcinoma were implanted subcutaneously in athymic mice. […] The treatment with gemcitabine started at day 9 after tumor implantation, when tumors were palpable. Compounds were prepared immediately before treatments.
When combined, gemcitabine was administered at days 9, 13, 17 and compound 1 was administered for the following 3 days after gemcitabine administration. […] Tumor growth was assessed by caliper. […] The effect of the antitumor treatment was evaluated as percentage of tumor growth inhibition (TGI %). Toxicity was evaluated on the basis of body weight reduction.

[3] = tested on: A2780 human ovarian carcinoma; assay: In vivo antitumor efficacy of the combination with irinotecan; settings: for TGI %: A2780 s.c. in athymic mice, Compound 1 30 mg/kg ip BID days 13-17, irinotecan 60 mg/kg iv day 13, combination: irinotecan 50 mg/kg day 13 + Compound 1 30 mg/kg days 13-17
Method: as §1, with “A2780” for “A2780 cells”, “mice. This tumor model was selected because it was sensitive to platinum derivatives and also on the basis of use of this drugs in ovarian cancer.” for “mice.”
as §2
as §3, with “When combined, compound 1 was administered from day 1 to day 5, irinotecan at day 1. […] Tumor” for “Tumor”

| SMILES | T-C (DU145 prostate carcinoma) | TGI % [1] | TGI % [2] | TGI % [3] | Toxicity ([3]; evaluated on the basis of body weight reduction, A2780 mice, Compound 1 30 mg/kg ip BID, irinotecan iv, alone or combined) |
| --- | --- | --- | --- | --- | --- |
| CC(=O)O[C@@]12CO[C@@H]1C[C@H](O)[C@@]1(C)C(=O)[C@H](O)C3=C(C)[C@@H](OC(=O)[C@H](O)[C@@H](NC(=O)OC(C)(C)C)c4ccccc4)C[C@@](O)([C@@H](OC(=O)c4ccccc4)[C@H]21)C3(C)C [docetaxel] | 3.7 days |  |  |  |  |
| N.N.[Cl][Pt][Cl] [Cisplatin, cisplatin] |  | 21% |  |  |  |
| CO[C@@H](C(=O)N1Cc2[nH]nc(NC(=O)c3ccc(N4CCN(C)CC4)cc3)c2C1)c1ccccc1 [Compound 1, N-{5-[(2R)-2-methoxy-2-phenylethanoyl]-1,4,5,6-tetrahydropyrrolo[3,4-c]pyrazol-3-yl}-4-(4-methylpiperazin-1-yl)benzamide] | 5.3 days | 46% | 53% | 72.3% |  |
| Nc1ccn([C@@H]2O[C@H](CO)[C@@H](O)C2(F)F)c(=O)n1 [gemcitabine] |  |  | 61% |  |  |
| CCc1c2c(nc3ccc(OC(=O)N4CCC(N5CCCCC5)CC4)cc13)-c1cc3c(c(=O)n1C2)COC(=O)[C@]3(O)CC [irinotecan] |  |  |  | 62% | 0/7 |
